Reference: ChEMBL document CHEMBL5528031, “Synthesis and antitumor activity of cyclopentane-fused anthraquinone derivatives” (Eur J Med Chem, 2024)
Values after ≈ are worked out from the molar mass of the structure shown. Active and inactive are the calls of the source. No cut-off for these calls is given here.

Legend:
DNA [1] = test: Binding affinity to pBR322 plasmid DNA (unknown origin) assessed as DNA intercalation by measuring reduction in electrophoretic shift incubated for 30 mins by EtBr staining based agarose gel electrophoresis; type: nucleic-acid assay; settings: dose 5-20 µM
[2] = target: T1, DNA topoisomerase 1 (Homo sapiens) (UniProt P11387); test: Inhibition of topoisomerase 1 (unknown origin) assessed as reduction in unwinding of supercoiled pBR322 plasmid DNA by measuring reduction in electrophoretic mobility at 5 to 20 uM incubated for 30 mins by EtBr staining based agarose gel electrophoresis; settings: dose 5-20 µM
T1 sequence (whole entry): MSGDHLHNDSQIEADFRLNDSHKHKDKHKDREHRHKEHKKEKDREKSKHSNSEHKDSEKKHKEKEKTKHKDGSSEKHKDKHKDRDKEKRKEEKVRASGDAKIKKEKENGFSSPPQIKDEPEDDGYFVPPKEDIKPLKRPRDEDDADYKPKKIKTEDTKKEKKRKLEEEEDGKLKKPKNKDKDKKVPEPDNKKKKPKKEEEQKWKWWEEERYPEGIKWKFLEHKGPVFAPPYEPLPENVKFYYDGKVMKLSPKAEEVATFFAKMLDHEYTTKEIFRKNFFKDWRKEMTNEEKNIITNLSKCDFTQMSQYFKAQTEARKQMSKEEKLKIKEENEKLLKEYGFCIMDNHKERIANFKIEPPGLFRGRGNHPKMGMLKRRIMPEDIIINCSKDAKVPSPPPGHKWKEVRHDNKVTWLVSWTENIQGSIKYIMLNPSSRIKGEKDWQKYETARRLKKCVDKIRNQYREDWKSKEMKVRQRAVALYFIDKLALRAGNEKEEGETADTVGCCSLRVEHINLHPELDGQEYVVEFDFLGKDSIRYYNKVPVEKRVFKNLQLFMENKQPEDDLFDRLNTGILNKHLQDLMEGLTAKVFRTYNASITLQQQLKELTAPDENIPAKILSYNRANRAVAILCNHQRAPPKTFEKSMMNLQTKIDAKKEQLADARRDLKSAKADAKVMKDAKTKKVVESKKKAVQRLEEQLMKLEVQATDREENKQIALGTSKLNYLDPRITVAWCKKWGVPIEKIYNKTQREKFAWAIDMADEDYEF

NCI-H1975 = test: Antiproliferative activity against human NCI-H1975 cells assessed as inhibition of cell growth incubated for 72 hrs by MTT assay; type: functional, cell-based; settings: NCI-H1975, 72 h
[3] = Cytotoxicity against hFB-hTERT6 cells assessed as inhibition of cell growth incubated for 72 hrs by MTT assay; type: toxicity, cell-based; settings: human
[4] = Antiproliferative activity against human DND41 cells assessed as inhibition of cell growth incubated for 72 hrs by MTT assay; type: functional, cell-based; settings: DND41, 72 h
[5] = Drug localization in lysosome of human HCT-116 cells assessed as appearance of yellow color at 2 uM incubated for 9 hrs by LysoTracker Green staining based fluorescence microscopic analysis; type: ADME, subcellular; settings: hct-116, 9 h
[6] = Drug uptake in human HCT-116 cells assessed as increase in intracellular accumulation at 2 uM measured after 24 hrs by flow cytometry analysis; type: ADME, cell-based; settings: hct-116, 24 h
Calf thymus DNA [7] = test: Binding affinity to calf thymus DNA assessed as binding constant at 10 uM by fluorescence spectroscopy analysis; type: nucleic-acid assay; settings: Bos taurus
[8] = Drug uptake in hFB-hTERT6 cells; type: ADME, cell-based; settings: human
HCT-116 [9] = test: Induction of oxidative stress in human HCT-116 cells assessed as increase in ROS-positive cells at 10 uM incubated for 2 hrs by Abcam-ROS deep red staining based fluorescence microscopic analysis; type: functional, cell-based
LN-229 = test: Antiproliferative activity against human LN-229 cells assessed as inhibition of cell growth incubated for 72 hrs by MTT assay; type: functional, cell-based; settings: LN-229, 72 h
HCT-116 [10] = test: Antiproliferative activity against human HCT-116 cells assessed as inhibition of cell growth incubated for 72 hrs by MTT assay; type: functional, cell-based; settings: HCT-116, 72 h
[11] = Drug localization in mitochondria of human HCT-116 cells assessed as appearance of yellow color at 2 uM incubated for 9 hrs by MitoTracker deep red staining based fluorescence microscopic analysis; type: ADME; settings: hct-116, 9 h
[12] = Drug uptake in human HCT-116 cells assessed as increase in intracellular accumulation at 2 uM measured after 5 mins by Hoechst 33342 staining based fluorescence confocal microscopic analysis; type: ADME, cell-based; settings: hct-116, 5 min
Z-138 = test: Antiproliferative activity against human Z138 cells assessed as inhibition of cell growth incubated for 72 hrs by MTT assay; type: functional, cell-based; settings: Z-138, 72 h
HL-60 = test: Antiproliferative activity against human HL-60 cells assessed as inhibition of cell growth incubated for 72 hrs by MTT assay; type: functional, cell-based; settings: HL-60, 72 h
K562 = test: Antiproliferative activity against human K562 cells assessed as inhibition of cell growth incubated for 72 hrs by MTT assay; type: functional, cell-based; settings: K562, 72 h
Calf thymus DNA [13] = test: Binding affinity to calf thymus DNA assessed as dissociation constant at 10 uM by fluorescence spectroscopy analysis; type: nucleic-acid assay, Bos taurus
CAPAN-1 = test: Antiproliferative activity against human CAPAN-1 cells assessed as inhibition of cell growth incubated for 72 hrs by MTT assay; type: functional, cell-based; settings: CAPAN-1, 72 h
[14] = Octanol/water partition coefficient, logP of compound at pH 7.4 by HPLC analysis; type: physicochemical
[15] = Antiproliferative activity against multidrug resistant human K562/4 cells expressing P-gp assessed as inhibition of cell growth incubated for 72 hrs by MTT assay; type: functional, cell-based; settings: K562/4, 72 h
HCT-116 [16] = test: Induction of oxidative stress in human HCT-116 cells assessed as increase in ROS-positive cells at 10 uM incubated for 2 hrs by flow cytometry analysis; type: functional, cell-based
[17] = Solubility of compound in deionized water at pH 6; type: physicochemical
[18] = Drug uptake in human HCT-116 cells assessed as increase in intracellular accumulation at 2 uM measured after 24 hrs by Hoechst 33342 staining based fluorescence confocal microscopic analysis; type: ADME, cell-based; settings: hct-116, 24 h
[19] = Drug localization in mitochondria of human HCT-116 cells assessed as appearance of yellow color at 2 uM incubated for 24 hrs by MitoTracker deep red staining based fluorescence microscopic analysis; type: ADME; settings: hct-116, 24 h
DNA [20] = test: Binding affinity to pBR322 plasmid DNA (unknown origin) assessed as DNA intercalation by measuring reduction in electrophoretic shift at 5 to 20 uM incubated for 30 mins by EtBr staining based agarose gel electrophoresis; type: nucleic-acid assay; settings: dose 5-20 µM
[21] = Drug localization in lysosome of human HCT-116 cells assessed as appearance of yellow color at 2 uM incubated for 24 hrs by LysoTracker Green staining based fluorescence microscopic analysis; type: ADME, subcellular; settings: hct-116, 24 h
[22] = Drug localization in nucleus of human HCT-116 cells assessed as appearance of magenta color at 2 uM incubated for 24 hrs by Hoechst 33342 staining based fluorescence microscopic analysis; type: ADME, subcellular; settings: hct-116, 24 h

Row | IC50 (NCI-H1975) | Drug uptake [6] | Kb (Calf thymus DNA [7]) | Drug uptake [8] | IC50 (HCT-116 [10]) | IC50 (HL-60) | logD [14] | Structure (SMILES) | IC50 [4] | Activity (HCT-116 [9]) | IC50 (LN-229) | IC50 (Z-138) | Kd (Calf thymus DNA [13]) | IC50 (CAPAN-1) | IC50 [15] | Activity (HCT-116 [16]) | also measured
1 | 2.3 µM | Active | 0.35 10^6/M | Active | 1.9 µM | 2.1 µM | 1.56 | N[C@H]1CCN(C(=O)C2Cc3c(O)c4c(c(O)c3C2)C(=O)c2ccccc2C4=O)C1 | 2.4 µM | Active | 0.7 µM | 2.5 µM | 2.9 µM | 1 µM | 1.9 µM | Active | Activity (DNA [1]): Dose-Dependent Effect; inhibition [2]: Active; IC50 at 72 h [3]: 4.2 µM; Drug uptake [5]: Active; Drug uptake [11]: Not Active; Drug uptake [12]: Active; IC50 (K562): 1.9 µM; solubility [17]: 55 mg/mL (≈ 140 mM)
2 | 0.62 µM | Active | 1.4 10^6/M | Active | 0.3 µM | 0.22 µM | 0.3 | COc1cccc2c1C(=O)c1c(O)c3c(c(O)c1C2=O)C[C@@](O)(C(=O)CO)C[C@@H]3O[C@H]1C[C@H](N)[C@H](O)[C@H](C)O1 [DOXORUBICIN] | 0.76 µM | inactive | 1.82 µM | 1.59 µM | 0.7 µM | 1.71 µM | 4.2 µM | inactive | Drug uptake [18]: Active; Drug uptake [19]: Not Active; Activity (DNA [20]): Active; Drug uptake [21]: Active; Drug uptake [22]: Active
